Assay [1] has as its system pathogenic strains of Campylobacter. The note with it: background statement; cited from earlier work.
Assay [2] relates to purified bacterial strains isolated from human microbiota (Table 1: Bifidobacterium longum, Bacteroides vulgatus, Bacteroides fragilis, Clostridium …). Format: cell-based, bacterial isolates, mainly from human (infant) feces. The conditions noted are these: for growth (optical density, OD 600 nm) of individual bacterial isolates / final culture pH of individual bacterial isolates: 2 g/L 2′-FL, 3-FL, LDFT or FOS, 5 g/L HMOS, ZMB1 medium, for most of these bacteria; for growth (optical density, OD 600 nm) of individual bacterial isolates / final culture pH of individual bacterial isolates / decrease in culture pH compared with FOS: 48 h; for growth (optical density, OD 600 nm) of individual bacterial isolates: anaerobic, 37° C.; for decrease in culture pH compared with FOS: 2 g/L each, in most cases; for production of lactic acid: summary statement, for FOS: fecal slurrys and individual bacteria of the human microbiome.

In assay [3] the test system is mixed microbiota of three infants (fecal slurry). Description: Anaerobic culture of infant fecal microbiota with oligosaccharide substrate. Format: cell-based, human infant feces. The conditions noted are these: 24 h. The protocol: First, the impact of 2′-FL and HMO were examined on fresh samples of mixed microbiota of three infants. A carbohydrate-free basal medium was prepared according to Hughes (Hughes S, et al. 2008 FEMS Microbiol Ecol, 64(3): 482-93) to study the growth of fecal bacteria during fermentation of human milk oligosaccharides (HMO) or 2′-FL. This basal medium contained per liter: 2 g peptone (Oxoid Ltd., Basingstoke, UK), 2 g yeast extract (Oxoid), 0.1 g NaCl, 0.04 g K2HPO4, 0.01 g MgSO4.7H2O, 0.01 g CaCl2.6H2O, 2 g NaHCO3, 0.005 g haemin (Sigma), 0.5 g L-cysteine HCl (Sigma), 0.5 g bile salts (Oxoid), 2 ml Tween 80, 10 μl vitamin K (Sigma), and 4 ml of 0.025% (w/v) resazurin solution. Anaerobic culture methods were those described in Bryant (Bryant, M 1972 Am J Clin Nutr, 25(12): 1324-8) using Hungate culture tubes, sealed with butyl rubber septa. Media were prepared and maintained anaerobically using O2-free CO2.
Fresh fecal samples were collected from three healthy babies, identified as A, B and C, who had not received antibiotics or pre/probiotics and had no history of gastrointestinal disorder. Fresh human infant feces were added to phosphate-buffered sterile anaerobic saline solution (1:10 feces to saline), mixed in a blender for 60 s, homogenized and filtered through a double layer of sterile cheesecloth. 2 g/L 2′FL and 5 g/L HMO were dissolved for 1 hour in medium before inoculation with 10% (v/v) fecal slurry prepared as above. Hungate tubes containing 2′-FL or HMO were inoculated with fecal material, serving as the treatment. Hungate tubes containing no substrate were also inoculated with feces, to serve as negative control. All tubes were incubated at 37° C. Culture supernatant samples were taken at 24 h. All samples were stored at −20° C. for further analysis. FIGS. 1, 2 and 3 show the results. Prebiotics are associated with an increase in the numbers of microbiota, especially bifidobacteria and lactobacilli, a decrease in gut pH, and an increase in lactic acid. […] These changes are all characteristic of prebiotics.

With 2′-fucosyllactose [2′-FL], in assay [1], the “Campylobacter binding and infectivity” value is given as “inhibited”. Also, in assay [2], the “growth (optical density, OD 600 nm) of individual bacterial isolates” value (from here on “growth (optical density, OD 600 nm)”) is “growth was stimulated (to various degrees)”; the “final culture pH of individual bacterial isolates” value (from here on “final culture pH”) is “the pH of cultures decreased”; the “decrease in culture pH compared with FOS” value is recorded as “at least as great”; the “production of lactic acid” value was “induce the production of lactic acid”. The “pH of infant microbiota cultures” value in assay [3] (2′-FL 2 g/L, HMOS 5 g/L, three microbial communities, FIG. 2) is given as “pH is reduced”. Also, the “lactic acid produced in infant microbiota cultures” value in assay [3] (2′-FL 2 g/L, HMOS 5 g/L, three microbial communities, compared to controls, FIG. 3) is “significantly higher amounts of lactic acid are produced compared to controls”. Besides, in assay [3] (2′-FL at 2 g/L, HMOS at 5 g/L, fecal slurry of 3 infants (A, B, C), 37° C., anaerobic, vs no-substrate control, FIG. 1), the “total bacteria (bacterial growth) in infant microbiota cultures” value is on record as “induced an increase in total bacteria”.
Consider 3-fucosyllactose [3-FL], for which, in assay [2], the “growth (optical density, OD 600 nm)” value is reported as “growth was stimulated (to various degrees)”; the “final culture pH” value was “the pH of cultures decreased”; the “decrease in culture pH compared with FOS” value was “at least as great”; the “production of lactic acid” value is “induce the production of lactic acid”.
Take lactodifucotetraose [LDFT]: in assay [2], the “growth (optical density, OD 600 nm)” value is given as “growth was stimulated (to various degrees)”; the “final culture pH” value is given as “the pH of cultures decreased”; the “decrease in culture pH compared with FOS” value is reported as “at least as great”; the “production of lactic acid” value was “induce the production of lactic acid”.

These data come from patent US20190255083A1 (priority 2011, published 2019).
